Results on 14 compounds are retold here after patent US20220204512A1, “SUBSTITUTED FUSED BICYCLIC DERIVATIVE, PREPARATION METHOD THEREFOR, AND APPLICATION THEREOF IN MEDICINES” (Jiangsu Hengrui Medicine Co., Ltd., priority 2019, published 2022).

SMILES strings stand for the structures. pIC50: −log10 of the molar value.

The target of data set [1] is T1, ERK2 (Homo sapiens, UniProt P28482).
T1 construct: purchased R&D 1879-KS-010
The data set is described as follows: ERK2 enzyme activity test (ADP-Glo Kinase Assay). It counts as biochemical. Conditions: ADP-Glo chemiluminescence. As to the method:
The purpose of this experiment is to detect the inhibitory ability of the compounds of the present disclosure on the ERK2 enzyme activity, and to evaluate the in vitro activity of the compounds based on the IC50. The ADP-Glo™ Kinase Assay Kit was used in this experiment. The substrate was phosphorylated under the action of the enzyme and ADP was produced at the same time. The ADP-Glo reagent was added to remove the unreacted ATP in the reaction system, and the ADP produced by the reaction was detected with kinase detection reagent. In the presence of the compound, the inhibition rate of the compound was calculated by measuring the signal value.
Preparation of enzyme and substrate: ERK2 (1879-KS-010, R&D) and substrate (custom peptide, Gill Biochemical) were prepared to 0.75 ng/ml and 1500 μM in a buffer (40 mM Tris, 20 mM MgCl2, 0.1 mg/ml BSA, 50 μM DTT), and then the enzyme solution and the substrate solution were prepared into a mixed solution at a volume ratio of 2:1 for later use. ATP was diluted to 500 μM with buffer. The compound was dissolved in DMSO (dimethyl sulfoxide, Shanghai Titan Scientific Co., Ltd.) to prepare a stock solution with an initial concentration of 20 mM, and then Bravo was used to prepare the compound. Finally, 3 μL of a mixed solution of enzyme and substrate, and 1 μL substrate of different concentrations of the compound (the initial concentration is 50 μM, 4-fold dilution) were added to each well of the 384-well plate, and the plate was incubated at 30° C. for 10 minutes, and finally 1 μL 500 μM ATP solution was added to each well, and the plate was incubated at 30° C. for 2 hours. Then 5 μL of ADP-Glo was added, and the plate was incubated at 30° C. for 40 minutes. Then 10 μL of kinase detection buffer was added, and the plate was incubated at 30° C. for 40 minutes. The 384-well plate was taken out and placed in a microplate reader (BMG labtech, PHERAstar FS), and the chemiluminescence was measured by a microplate reader.
Microsoft Excel, Graphpad Prism 5 was used to process and analyze the data.
For orientation: ADP-Glo first removes unused ATP, then detects ADP through luciferase.

Data set [2] in a line: Pharmacokinetics assay in mice. Conditions: female, mouse, po, C57 mice, intragastric, 2 mg/kg, plasma. It counts as in vivo. As to the method: Mice were used as test animals. The drug concentration in plasma at different time points was determined by LC/MS/MS method after administration of the compounds 1-P2, 2-P2, 4-P2, 6-P2, 9-P2, 10-P2 and 11-P2. The pharmacokinetic behavior of the compounds of the present disclosure was studied and evaluated in mice.
Sixty-three C57 mice (female, equally divided into seven groups) were purchased from Shanghai Jiesijie Laboratory Animal Co., LTD. (Certificate No.: SCXK(Shanghai)2013-0006).
A certain amount of the test compound was weighed, dissolved in 5% of DMSO by volume and 5% of tween 80, followed by the additon of 90% of normal saline to prepare a 0.1 mg/mL colorless, clear and transparent solution.
After an overnight fast, C57 mice were intragastrically administered the test compound at an administration dose of 2 mg/kg and an administration volume of 0.2 ml/10 g.
The mice were intragastrically administered the test compounds. 0.1 ml of blood was taken before the administration and at 0.25, 0.5, 1.0, 2.0, 4.0, 6.0, 8.0, 11.0 and 24.0 hours after the administration. The samples were stored in heparinized tubes, and centrifuged for 10 minutes at 3500 rpm to separate the blood plasma. The plasma samples were stored at −20° C.
The content of the test compound in the plasma of mice after intragastrical administration of the test compound at different concentrations was determined: 25 μL of […] plasma at each time point after the administration was taken, followed by the addition of 50 μL of the internal standard camptothecin solution (100ng/mL) and 200 μL of acetonitrile. The resulting solution was vortex-mixed for 5 minutes, and centrifuged for 10 minutes (4000 rpm). 4 μL of the supernatant was taken from the plasma samples for LC/MS/MS analysis.

T1 sequence (P28482 2-360 limits assumed): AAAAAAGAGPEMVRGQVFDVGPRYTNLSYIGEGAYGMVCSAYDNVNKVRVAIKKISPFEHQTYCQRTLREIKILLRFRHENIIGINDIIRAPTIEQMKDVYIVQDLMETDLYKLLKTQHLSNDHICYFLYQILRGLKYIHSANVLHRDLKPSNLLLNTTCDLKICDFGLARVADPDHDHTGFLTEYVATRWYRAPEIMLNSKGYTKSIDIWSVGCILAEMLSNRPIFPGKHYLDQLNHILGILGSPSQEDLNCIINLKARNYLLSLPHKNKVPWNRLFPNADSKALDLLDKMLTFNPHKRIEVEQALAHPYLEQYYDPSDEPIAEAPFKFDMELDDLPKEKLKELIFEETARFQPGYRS

By pIC50 is commonly meant the IC50 on a negative log10 scale, so that one unit is a factor of ten. Read a high pIC50 as a low IC50. In turn, `COc1cc(F)cc([C@@H](CO)NC(=O)[C@H](C)N2CCn3cc(-c4nc(N[C@@H](C)CO)ncc4Cl)nc3C2=O)c1` [Example 14-P1, (S)-2-(2-(5-Chloro-2-(((S)-1-hydroxypropan-2-yl)amino)pyrimidin-4-yl)-8-oxo-5,6-dihydroimidazo[1,2-a]pyrazin-7(8H)-yl)-N-((S)-1-(3-fluoro-5-methoxyphenyl)-2-hydroxyethyl)propanamide] showed a pIC50 in data set [1] of 5.82.
In the case of `Cc1cccc([C@@H](CO)NC(=O)[C@H](C)N2CCc3cc(-c4nc(NC5CCOCC5)ncc4Cl)cn3C2=O)c1` [Example 11-P1, (S)-2-(6-(5-Chloro-2-((tetrahydro-2H-pyran-4-yl)amino)pyrimidin-4-yl)-1-oxo-3,4-dihydropyrrolo[1,2-c]pyrimidin-2(1H)-yl)-N-((S)-2-hydroxy-1-(m-tolyl)ethyl)propanamide], in data set [1], the negative-log IC50 (pIC50) is 7.12.
As to `COc1cc(F)cc([C@@H](CO)NC(=O)[C@@H](C)N2CCn3cc(-c4nc(N[C@@H](C)CO)ncc4Cl)cc3C2=O)c1` [Example 15, (R)-2-(7-(5-Chloro-2-(((S)-1-hydroxypropan-2-yl)amino)pyrimidin-4-yl)-1-oxo-3,4-dihydropyrrolo[1,2-a]pyrazin-2(1H)-yl)-N-((S)-1-(3-fluoro-5-methoxyphenyl)-2-hydroxyethyl)propanamide], the negative-log IC50 (pIC50) in data set [1] was 7.54.
In the case of `COc1cc(F)cc([C@@H](CO)NC(=O)[C@H](C)N2CCc3cc(-c4nc(NC5CCOCC5)ncc4Cl)cn3C2=O)c1` [Example 2-P1, (S)-2-(6-(5-Chloro-2-((tetrahydro-2H-pyran-4-yl)amino)pyrimidin-4-yl)-1-oxo-3,4-dihydropyrrolo[1,2-c]pyrimidin-2(1H)-yl)-N-((S)-1-(3-fluoro-5-methoxyphenyl)-2-hydroxyethyl)propanamide], the negative-log IC50 (pIC50) in data set [1] is 6.47.
`COc1cc(F)cc([C@@H](CO)NC(=O)[C@H](C)N2CCc3cc(-c4nc(Nc5ccnn5C)ncc4C)cn3C2=O)c1` [Example 1-P1, (S)-N-((S)-1-(3-Fluoro-5-methoxyphenyl)-2-hydroxyethyl)-2-(6-(5-methyl-2-((1-methyl-1H-pyrazol-5-yl)amino)pyrimidin-4-yl)-1-oxo-3,4-dihydropyrrolo[1,2-c]pyrimidin-2(1H)-yl)propanamide] gave a negative-log IC50 (pIC50) in data set [1] of 6.09.
For the compound `COc1cc(F)cc([C@@H](CO)NC(=O)[C@H](C)N2Cc3cc(-c4nc(NC5CCOCC5)ncc4Cl)cn3C2=O)c1` [Example 6-P1, (S)-2-(6-(5-Chloro-2-((tetrahydro-2H-pyran-4-yl)amino)pyrimidin-4-yl)-3-oxo-1H-pyrrolo[1,2-c]imidazol-2(3H)-yl)-N-((S)-1-(3-fluoro-5-methoxyphenyl)-2-hydroxyethyl)propanamide], the negative logarithm of the IC50 (pIC50) in data set [1] is 5.59.
On the same count and under the same terms, under `Cc1cccc([C@@H](CO)NC(=O)C(C)N2CCn3cc(-c4nc(NC5CCOCC5)ncc4Cl)nc3C2=O)c1` (stereo partly drawn) [Example 5, 2-(2-(5-Chloro-2-((tetrahydro-2H-pyran-4-yl)amino)pyrimidin-4-yl)-8-oxo-5,6-dihydroimidazo[1,2-a]pyrazin-7(8H)-yl)-N-((S)-2-hydroxy-1-(m-tolyl)ethyl)propanamide] stands 8.44; under `COc1cc(F)cc([C@@H](CO)NC(=O)[C@H](C)N2CCn3cc(-c4nc(Nc5ccnn5C)ncc4C)cc3C2=O)c1` [Example 12-P1, (S)-N-((S)-1-(3-Fluoro-5-methoxyphenyl)-2-hydroxyethyl)-2-(7-(5-methyl-2-((1-methyl-1H-pyrazol-5-yl)amino)pyrimidin-4-yl)-1-oxo-3,4-dihydropyrrolo[1,2-a]pyrazin-2(1H)-yl)propanamide], 6.02; under `COc1cc(F)cc([C@@H](CO)NC(=O)[C@@H](C)N2CCn3cc(-c4nc(N[C@@H](C)CO)ncc4Cl)nc3C2=O)c1` [Example 14-P2, (R)-2-(2-(5-Chloro-2-(((S)-1-hydroxypropan-2-yl)amino)pyrimidin-4-yl)-8-oxo-5,6-dihydroimidazo[1,2-a]pyrazin-7(8H)-yl)-N-((S)-1-(3-fluoro-5-methoxyphenyl)-2-hydroxyethyl)propanamide], 8.31.
What is called AUC is the area under the concentration-time curve, a measure of exposure. As a reminder, the MRT is a mean duration of stay, worked out from the concentration-time curve. The compound `COc1cc(F)cc([C@@H](CO)NC(=O)[C@@H](C)N2Cc3cc(-c4nc(NC5CCOCC5)ncc4Cl)cn3C2=O)c1` [Example 6-P2, (R)-2-(6-(5-Chloro-2-((tetrahydro-2H-pyran-4-yl)amino)pyrimidin-4-yl)-3-oxo-1H-pyrrolo[1,2-c]imidazol-2(3H)-yl)-N-((S)-1-(3-fluoro-5-methoxyphenyl)-2-hydroxyethyl)propanamide] had a pIC50 in data set [1] of 8.12. Further, the Vd/F in data set [2] (read-out: Apparent distribution volume Vz/F) was 7.74 L/kg. Moreover, the exposure (AUC) in data set [2] (read-out: Area under curve AUC) worked out at 1740 ng·h/mL. In data set [2] (read-out: Clearance CLz/F), the CL/F came to 18.9 mL/min/kg. The half-life in data set [2] (read-out: Half-life T1/2 (converted)) was 4.74 h. In addition, in data set [2] (read-out: Plasma concentration Cmax), the Cmax stood at 1310 ng/mL. The MRT in data set [2] (read-out: Residence time MRT) was found to be 1.39 h.
As to `COc1cc(F)cc([C@@H](CO)NC(=O)[C@H](C)N2Cc3cc(-c4nc(Nc5ccnn5C)ncc4C)cn3C2=O)c1` [Example 8-P1, (S)-N-((S)-1-(3-Fluoro-5-methoxyphenyl)-2-hydroxyethyl)-2-(6-(5-methyl-2-((1-methyl-1H-pyrazol-5-yl)amino)pyrimidin-4-yl)-3-oxo-1H-pyrrolo[1,2-c]imidazol-2(3H)-yl)propanamide], the pIC50 in data set [1] is 5.67.
`COc1cc(F)cc([C@@H](CO)NC(=O)[C@@H](C)N2Cc3cc(-c4nc(Nc5ccnn5C)ncc4C)cn3C2=O)c1` [Example 8-P2, (R)-N-((S)-1-(3-Fluoro-5-methoxyphenyl)-2-hydroxyethyl)-2-(6-(5-methyl-2-((1-methyl-1H-pyrazol-5-yl)amino)pyrimidin-4-yl)-3-oxo-1H-pyrrolo[1,2-c]imidazol-2(3H)-yl)propanamide] gave a pIC50 in data set [1] of 7.59.
The compound `COc1cc(F)cc([C@@H](CO)NC(=O)[C@H](C)N2CCn3cc(-c4nc(NC5CCOCC5)ncc4Cl)cc3C2=O)c1` [Example 4-P1, (S)-2-(7-(5-Chloro-2-((tetrahydro-2H-pyran-4-yl)amino)pyrimidin-4-yl)-1-oxo-3,4-dihydropyrrolo[1,2-a]pyrazin-2(1H)-yl)-N-((S)-1-(3-fluoro-5-methoxyphenyl)-2-hydroxyethyl)propanamide] gave a pIC50 in data set [1] of 6.09.
With `Cc1cccc([C@@H](CO)NC(=O)[C@@H](C)N2CCn3cc(-c4ccnc(Nc5ccnn5C)n4)cc3C2=O)c1` [Example 18-P2, (R)-N-((S)-2-Hydroxy-1-(m-tolyl)ethyl)-2-(7-(2-((1-methyl-1H-pyrazol-5-yl)amino)pyrimidin-4-yl)-1-oxo-3,4-dihydropyrrolo[1,2-a]pyrazin-2(1H)-yl)propanamide], in data set [1], the pIC50 was 8.26.
